Source: US11241441B2, “Formulations of lixivaptan for the treatment of polycystic disease” (PALLADIO BIOSCIENCES, INC., priority 2017, dated 2022)

Legend:
[1] = In-clinic pharmacokinetic study: plasma pharmacokinetics and dose proportionality; assay type: in vivo, human; conditions: 100 mg to 400 mg administered as 2 divided doses
Method: The primary objective of this study was to assess the pharmacokinetics and dose proportionality of lixivaptan over the dose range targeted for clinical use (e.g., 100 to 400 mg daily) using unit doses of 50 mg and multiples thereof given twice daily for 7.5 days.
Subjects received lixivaptan at total daily doses of 100 mg, 200 mg, or 400 mg (administered as 50, 100, and 200 mg Q12H). Subjects were to be enrolled into the study in two cohorts of 30 subjects, but actual cohort numbers were 23 and 34 subjects. Of the 57 subjects enrolled in the study, 27 were female (47.4%) and 30 were male (52.6%). The majority of subjects were White (35/57, 61.4%) and of Hispanic or Latino ethnicity (46/57, 80.7%). The overall mean age of subjects in the study was 33.6 (8.31) years, and the overall mean body mass index for subjects was 26.2 (3.79). There were to be approximately 20 subjects enrolled per dose level. An approximately equal number of males and females were enrolled at each dose level such that neither gender was represented by fewer than 8 subjects. The starting date for each cohort subjects was staggered by 7 days for logistical purposes. Screening evaluations were performed within 28 days prior to Day 1. […]

[2] = biological target: T1, V2 receptor (Homo sapiens, UniProt P30518); experiment: Ascending multiple-dose, safety and tolerance study in healthy adult male subjects
T1 sequence (P30518 whole entry): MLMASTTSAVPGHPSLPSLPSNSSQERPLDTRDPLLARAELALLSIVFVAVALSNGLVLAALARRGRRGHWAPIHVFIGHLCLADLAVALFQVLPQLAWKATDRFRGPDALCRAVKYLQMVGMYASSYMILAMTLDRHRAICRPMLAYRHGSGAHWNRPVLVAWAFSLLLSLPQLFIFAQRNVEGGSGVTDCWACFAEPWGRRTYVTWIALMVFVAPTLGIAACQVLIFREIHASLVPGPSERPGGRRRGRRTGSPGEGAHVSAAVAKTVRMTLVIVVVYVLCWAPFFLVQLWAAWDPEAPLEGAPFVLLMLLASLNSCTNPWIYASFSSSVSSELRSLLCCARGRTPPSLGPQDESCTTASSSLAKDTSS
Method: Lixivaptan in healthy volunteers was tested in a randomized, double-blind, placebo-controlled, ascending multiple-dose, safety and tolerance clinical study in 98 healthy male subjects.

[3] = biological target: T1, V2 receptor; experiment: Single 100 mg oral dose study in ESRD and normal renal function subjects: pharmacodynamics (urine osmolality, vasopressin, urine output); assay type: in vivo; parameters: Lixivaptan antagonizes the effects of vasopressin that are mediated by the V2 receptor; from tissue; host or cells: living human subjects (in vivo clinical studies); the receptor is the subjects' own and no tissue was isolated
Method: In this study, the PK of lixivaptan following a single 100 mg oral dose of lixivaptan was evaluated in subjects with end-stage renal disease (ESRD) and control subjects with normal renal function. Pharmacodynamic (PD) evaluations, including vasopressin concentration, serum sodium concentration, urine volume, and urine osmolality were assessed.

[4] = Measured Log P; assay type: physicochemical

Cc1ccc(F)cc1C(=O)Nc1ccc(C(=O)N2Cc3cccn3Cc3ccccc32)c(Cl)c1 [Lixivaptan, 5-fluoro-2-methyl-N-[4-(5H-pyrrolo[2,1-C] [1,4]benzodiazepin-10(11H)-ylcarbonyl)-3-chlorophenyl]benzamide]
dose proportionality of pharmacokinetic parameters (Cmax, AUC(0-12)) [1]: proportional kinetics | maintenance of urine osmolality below 300 mOsm/kg ([2]; 300 mg to 800 mg doses (FIG. 3)): up to 12 hours | suppression of Uosm to values <300 mOsm/kg ([2]; 800 mg dose only): up to 24 hours | time Uosm remained below iso-osmolar point ([2]; 100-mg dose): 4 h | time of minimal values of Uosm after drug administration ([2]; across all dose groups): ≤ 2 h | serum osmolality ([2]; all subjects given lixivaptan): significant dose-related increases | safety and tolerability ([2]; daily oral doses up to 800 mg, twice daily up to 400 mg, 14 consecutive days, healthy men): safe and well tolerated | minimal values of Uosm ([2]; doses of 25 mg and higher): < 300 mOsm/L | urine output, 0-to-24-hour collection interval ([2]; doses of 200 mg or larger, across 14 days, vs placebo): significantly greater urine output than placebo | urine output, first 4 hours after drug administration ([2]; single dose of 25 mg or higher, vs placebo): significantly greater urine output than placebo | Uvol (0-to-4-hours) ([2]; single doses of 25 mg and higher (day 1)): doubling | Urine osmolality Change from baseline Mean ([3]; 0 to 2 hours postdose, ESRD): −109.0 mosmol/kg | Urine osmolality Observed Mean ([3]; 0 to 2 hours postdose, ESRD, single 100 mg oral dose): 216.5 mosmol/kg | Urine osmolality Change from baseline Mean ([3]; 0 to 2 hours postdose, Normal): −398.5 mosmol/kg | Urine osmolality Observed Mean ([3]; 0 to 2 hours postdose, Normal, single 100 mg oral dose): 132.6 mosmol/kg | Urine osmolality Change from baseline Mean ([3]; 2 to 4 hours postdose, ESRD): −108.7 mosmol/kg | Urine osmolality Observed Mean ([3]; 2 to 4 hours postdose, ESRD): 202.4 mosmol/kg | Urine osmolality Change from baseline Mean ([3]; 2 to 4 hours postdose, Normal): −412.6 mosmol/kg | Urine osmolality Observed Mean ([3]; 2 to 4 hours postdose, Normal): 109.9 mosmol/kg | Urine osmolality Change from baseline Mean ([3]; 4 to 8 hours postdose, ESRD): −118.3 mosmol/kg | Urine osmolality Observed Mean ([3]; 4 to 8 hours postdose, ESRD): 195.1 mosmol/kg | Urine osmolality Change from baseline Mean ([3]; 4 to 8 hours postdose, Normal): −258.3 mosmol/kg | Urine osmolality Observed Mean ([3]; 4 to 8 hours postdose, Normal): 272.8 mosmol/kg | effect on change from baseline in urine osmolality ([3]; ESRD group): markedly reduced | Urine osmolality Observed Mean ([3]; Predose, ESRD): 311.1 mosmol/kg | Urine osmolality Observed Mean ([3]; Predose, Normal): 514.7 mosmol/kg | vasopressin levels ([3]; both renal function groups): elevations of vasopressin levels | urine output ([3]; normal group): increased urine output | logP [4]: 1
